Columns and labels:
[1] = Solubility in different solvents according to Chinese Pharmacopeia (2005 edition); assay type: physicochemical; conditions: for Result: at the given solute:solvent ratio
Experimental: The solubility of the (S)—[N-3-(3′-fluoro-4′-(4″-phenylpiperazinyl))phenyl-2-oxo-5-oxazolelidinyl]methylacetamide hydrates was tested with different solvents, and the test results are shown in Tables 15-19. The solubility was measured according to Chinese Pharmacopeia (2005 edition).

Staphylococcus aureus = test: Minimum inhibitory concentration (MIC) in vitro, agar dilution method, quality control strain; assay type: cell-based; conditions: strain S. AT C C25923 (Table 7 No. 1); hydrate
In short: (§1)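 Clinical isolates collected in Sichuan and Beijing (2007–2008) were tested by CLSI/NCCLS agar dilution. Compounds were dissolved in DMSO and diluted in sterile distilled water; MIC50, MIC90 and MIC range across strains were derived.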

E. feacium = test: Minimum inhibitory concentration (MIC) in vitro, agar dilution method; assay type: cell-based; conditions: hydrate
In short: as §1

S. epidermidis MRSE = test: as above; assay type: cell-based; conditions: hydrate
In short: as §1

[2] = test system: Staphylococcus aureus MRSA; test: as above; assay type: cell-based; conditions: hydrate
In short: as §1

S. epidermidis MSSE = test: as above; assay type: cell-based; conditions: hydrate
In short: as §1

E. feacalis = test: as above; assay type: cell-based; conditions: hydrate
In short: as §1

[3] = test system: Staphylococcus aureus MSSA; test: as above; assay type: cell-based; conditions: hydrate
In short: as §1

[4] = E. feacium (5 strains), clinically isolated
[5] = S. ep MRSE (10 strains), clinically isolated
[6] = S. MRSA (10 strains), clinically isolated
[7] = S. ep MSSE (10 strains), clinically isolated
[8] = E. feacalis (5 strains), clinically isolated
[9] = S. MSSA (11 strains), clinically isolated

CC(=O)NC[C@H]1CN(c2ccc(N3CCN(c4ccccc4)CC3)c(F)c2)C(=O)O1 [2/7 hydrate, (S)—[N-3-(3′-fluoro-4′-(4″-phenylpiperazinyl))phenyl-2-oxo-5-oxazolidinyl]methyl acetamide 2/7 hydrate]
Solubility compared with the anhydride ([1]; different solvents): sometimes more soluble than the anhydride
Result ([1]; solvent 0.1N Hydrochloric acid): Dissolved
Result ([1]; solvent 0.1N Sodium hydroxide): Insoluble
Result ([1]; solvent Acetonitrile): Dissolved
Result ([1]; solvent Ethanol): Dissolved
Result ([1]; solvent Methanol): Dissolved
Result ([1]; solvent Water, hydrate): Dissolved
MIC (Staphylococcus aureus): 0.5 µg/mL
MIC50 (E. feacium; [4]): 1 µg/mL
MIC90 (E. feacium; [4]): 1 µg/mL
MICrange (E. feacium; [4]): 0.5 to 1 µg/mL
MIC (E. feacium; strain Efm 98 (Table 8 No. 21)): 0.5 µg/mL
MIC (E. feacium; strain Efm 171 (Table 8 No. 25)): 1 µg/mL
MIC (E. feacium; strain Efm 197 (Table 8 No. 22)): 0.5 µg/mL
MIC (E. feacium; strain Efm N3 (Table 8 No. 23)): 1 µg/mL
MIC (E. feacium; strain Efm N4 (Table 8 No. 24)): 1 µg/mL
MIC50 (S. epidermidis MRSE; [5]): 0.5 µg/mL
MIC90 (S. epidermidis MRSE; [5]): 0.5 µg/mL
MICrange (S. epidermidis MRSE; [5]): 0.25 to 0.5 µg/mL
MIC (S. epidermidis MRSE; strain S. ep MRSE4 (Table 8 No. 9)): 0.25 µg/mL
MIC (S. epidermidis MRSE; strain S. ep MRSE20 (Table 8 No. 6)): 0.5 µg/mL
MIC (S. epidermidis MRSE; strain S. ep MRSE87 (Table 8 No. 13)): 0.5 µg/mL
MIC (S. epidermidis MRSE; strain S. ep MRSE90 (Table 8 No. 10)): 0.5 µg/mL
MIC (S. epidermidis MRSE; strain S. ep MRSE101 (Table 8 No. 7)): 0.25 µg/mL
MIC (S. epidermidis MRSE; strain S. ep MRSE105 (Table 8 No. 11)): 0.5 µg/mL
MIC (S. epidermidis MRSE; strain S. ep MRSE140 (Table 8 No. 14)): 0.5 µg/mL
MIC (S. epidermidis MRSE; strain S. ep MRSE142 (Table 8 No. 12)): 0.5 µg/mL
MIC (S. epidermidis MRSE; strain S. ep MRSE210 (Table 8 No. 15)): 0.5 µg/mL
MIC (S. epidermidis MRSE; strain S. ep MRSE211 (Table 8 No. 8)): 0.5 µg/mL
MIC50 [2, 6]: 0.5 µg/mL
MIC90 [2, 6]: 0.5 µg/mL
MICrange [2, 6]: 0.5 to 1 µg/mL
MIC ([2]; strain S. MRSA 29 (Table 7 No. 15)): 0.5 µg/mL
MIC ([2]; strain S. MRSA 101 (Table 7 No. 14)): 1 µg/mL
MIC ([2]; strain S. MRSA 201 (Table 7 No. 13)): 0.5 µg/mL
MIC ([2]; strain S. MRSA B27 (Table 7 No. 21)): 0.5 µg/mL
MIC ([2]; strain S. MRSA B105 (Table 7 No. 17)): 0.5 µg/mL
MIC ([2]; strain S. MRSA B143 (Table 7 No. 19)): 0.5 µg/mL
MIC ([2]; strain S. MRSA B151 (Table 7 No. 20)): 0.5 µg/mL
MIC ([2]; strain S. MRSA B164 (Table 7 No. 16)): 0.5 µg/mL
MIC ([2]; strain S. MRSA B199 (Table 7 No. 22)): 0.5 µg/mL
MIC ([2]; strain S. MRSA B617 (Table 7 No. 18)): 0.5 µg/mL
MIC50 (S. epidermidis MSSE; [7]): 0.5 µg/mL
MIC90 (S. epidermidis MSSE; [7]): 0.5 µg/mL
MICrange (S. epidermidis MSSE; [7]): 0.25 to 0.5 µg/mL
MIC (S. epidermidis MSSE; strain S. ep MSSE87 (Table 7 No. 23)): 0.125 µg/mL
MIC (S. epidermidis MSSE; strain S. ep MSSE88 (Table 8 No. 5)): 0.5 µg/mL
MIC (S. epidermidis MSSE; strain S. ep MSSE113 (Table 7 No. 24)): 0.25 µg/mL
MIC (S. epidermidis MSSE; strain S. ep MSSE116 (Table 7 No. 25)): 0.25 µg/mL
MIC (S. epidermidis MSSE; strain S. ep MSSE118 (Table 8 No. 2)): 0.5 µg/mL
MIC (S. epidermidis MSSE; strain S. ep MSSE119 (Table 7 No. 27)): 0.25 µg/mL
MIC (S. epidermidis MSSE; strain S. ep MSSE137 (Table 8 No. 4)): 0.5 µg/mL
MIC (S. epidermidis MSSE; strain S. ep MSSE140 (Table 8 No. 3)): 0.5 µg/mL
MIC (S. epidermidis MSSE; strain S. ep MSSE142 (Table 7 No. 26)): 0.5 µg/mL
MIC (S. epidermidis MSSE; strain S. ep MSSE153 (Table 8 No. 1)): 0.5 µg/mL
MIC50 (E. feacalis; [8]): 0.25 µg/mL
MIC90 (E. feacalis; [8]): 0.5 µg/mL
MICrange (E. feacalis; [8]): 0.125 to 0.5 µg/mL
MIC (E. feacalis; strain Efa 116 (Table 8 No. 16)): 0.5 µg/mL
MIC (E. feacalis; strain Efa 907 (Table 8 No. 19)): 0.25 µg/mL
MIC (E. feacalis; strain Efa 3006 (Table 8 No. 18)): 0.25 µg/mL
MIC (E. feacalis; strain Efa 33748 (Table 8 No. 17)): 0.5 µg/mL
MIC50 [3, 9]: 0.5 µg/mL
MIC90 [3, 9]: 0.5 µg/mL
MICrange [3, 9]: 0.5 to 1 µg/mL
MIC ([3]; strain S. MSSA 123 (Table 7 No. 3)): 0.5 µg/mL
MIC ([3]; strain S. MSSA 187 (Table 7 No. 7)): 0.5 µg/mL
MIC ([3]; strain S. MSSA 195 (Table 7 No. 6)): 1 µg/mL
MIC ([3]; strain S. MSSA 195 (Table 7 No. 12)): 0.5 µg/mL
MIC ([3]; strain S. MSSA 201 (Table 7 No. 11)): 0.5 µg/mL
MIC ([3]; strain S. MSSA 232 (Table 7 No. 2)): 0.5 µg/mL
MIC ([3]; strain S. MSSA 275 (Table 7 No. 10)): 0.5 µg/mL
MIC ([3]; strain S. MSSA 466 (Table 7 No. 8)): 0.5 µg/mL
MIC ([3]; strain S. MSSA 519 (Table 7 No. 9)): 0.5 µg/mL
MIC ([3]; strain S. MSSA 520 (Table 7 No. 4)): 0.25 µg/mL
MIC ([3]; strain S. MSSA 580 (Table 7 No. 5)): 0.25 µg/mL

Source: patent US8916567B2, “Certain crystalline hydrates, pharmaceutical compositions thereof and methods for preparation and use thereof” (Universal Technology Alliance, Inc., priority 2009, dated 2014)
